Patent USRE37781E1, “Substituted cyclic carbonyls and derivatives thereof useful as retroviral protease inhibitors” (DuPont Pharmaceuticals Company, priority 1991, dated 2002)
In brackets after ≈: the same amount, converted by molar mass. Like-named read-outs stand apart in the source and are kept apart here.

What was measured:
HIV-1 (RF) in MT-2 cells = assay: microbe, parasite or virus in culture; format: cell-based
Outline: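 Read-out: gag and pol viral RNA captured by 5′-biotinylated oligonucleotides on streptavidin-coated wells, detected with alkaline phosphatase-linked reporter oligonucleotides, calibrated against BH10 in vitro transcripts. Virus stocks (RF, MN, IIIB) come from H9 cultures; MT-2 host cells kept in RPMI 1640, 5% FCS.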

[1] = biological target: single-chain tethered dimer of HIV protease (Human immunodeficiency virus 1, UniProt P04585); assay: biochemical; format: biochemical; design: fused on or other part: A second copy of the same protease unit is joined to the first by a short peptide tether, giving one polypeptide
[2] = Human immunodeficiency virus 1, MT2, Table 2m, read-out: IC90
[3] = Human immunodeficiency virus 1, MT2, 48 h, Table 2d, class symbols, read-out: IC90
[4] = read-out: HPLC K1, Table 2d, class symbols
[5] = Human immunodeficiency virus 1, MT2, 48 h, Table 2d, HIV RNA assay, read-out: IC90
[6] = read-out: HPLC K1, Table 2d, HIV protease inhibition, HPLC method

Row | SMILES | melting point | IC90 (HIV-1 (RF) in MT-2 cells; [3]) | Ki [1, 4] | other results
1 | O=S1(=O)N(Cc2ccc(CO)cc2)C(Cc2ccccc2)C(O)C(O)C(Cc2ccccc2)N1Cc1ccc(CO)cc1 (stereo not drawn) [23B] | 189 to 190 °C |  |  | IC90 (HIV-1 (RF) in MT-2 cells; [2]): < 10 µg/mL; Ki ([1]; read-out: HPLC Ki, Table 2m): < 10 nM
2 | N#Cc1cccc(CN2C(=O)N(Cc3cccc(C=O)c3)C(Cc3ccccc3)C(O)C(O)C2Cc2ccccc2)c1 (stereo not drawn) [10C] | 189 to 191 °C | < 10 µg/mL | < 10 nM | 
3 | N=C(N)c1cccc(CN2C(=O)N(Cc3cccc(C(=N)N)c3)C(Cc3ccccc3)C(O)C(O)C2Cc2ccccc2)c1 (stereo not drawn) [11A] | 224 to 226 °C | > 100 µg/mL | 10 to 1000 nM | 
4 | CCC(O)CN1C(=O)N(CC(O)CC)C(Cc2ccccc2)C(O)C(O)C1Cc1ccccc1 (stereo not drawn) [15VN] | 99.2 °C | > 50 µg/mL | > 1000 nM | 
5 | NC(=O)c1cccc(CN2C(=O)N(Cc3ccc(CO)cc3)C(Cc3ccccc3)C(O)C(O)C2Cc2ccccc2)c1 (stereo not drawn) [15WT] | 123 to 124 °C | < 10 µg/mL | < 10 nM | 
6 | CCN(CC)C(=O)c1cccc(CN2C(=O)N(Cc3cccc(C(=O)N(CC)CC)c3)C(Cc3ccccc3)C(O)C(O)C2Cc2ccccc2)c1 (stereo not drawn) [15WF] | 89 to 91 °C | < 10 µg/mL | < 10 nM | 
7 | O=C1N(CC2CC2)C(Cc2ccc([N+](=O)[O-])cc2)C(O)C(O)C(Cc2ccccc2[N+](=O)[O-])N1CC1CC1 (stereo not drawn) [Example 20A] | 209.8 °C |  |  | IC90 (HIV-1 (RF) in MT-2 cells; Human immunodeficiency virus 1, MT2, Table 2i, read-out: IC90): < 10 µg/mL; Ki ([1]; read-out: HPLC Ki, Table 2i): < 10 nM
8 | CCN(CC)C(=O)c1cccc(CN2C(=O)N(Cc3cccc(CO)c3)C(Cc3ccccc3)C(O)C(O)C2Cc2ccccc2)c1 (stereo not drawn) [15WJ] | 88.9 to 90 °C | < 10 µg/mL | < 10 nM | 
9 | O=C1N(Cc2cccc(OCCN3CCOCC3)c2)C(Cc2ccccc2)C(O)C(O)C(Cc2ccccc2)N1Cc1cccc(OCCN2CCOCC2)c1 (stereo not drawn) [Example 15YG] | 110 to 112 °C |  |  | IC90 (HIV-1 (RF) in MT-2 cells; [5]): < 10 µg/mL; Ki [1, 6]: 10 to 1000 nM
10 | N#Cc1cc(CN2C(=O)N(Cc3cccc(-c4cc[nH]n4)c3)C(Cc3ccccc3)C(O)C(O)C2Cc2ccccc2)ccc1F (stereo not drawn) [Example 15CF] | 118 to 120 °C |  |  | IC90 (HIV-1 (RF) in MT-2 cells; [5]): < 10 µg/mL; Ki [1, 6]: < 10 nM
11 | CCNC(=O)c1cccc(CN2C(=O)N(Cc3cccc(C(=O)NCC)c3)C(Cc3ccccc3)C(O)C(O)C2Cc2ccccc2)c1 (stereo not drawn) [11R] | 135 to 138 °C | < 10 µg/mL | < 10 nM | 
12 | O=C(Nc1cccc(CN2C(=O)N(Cc3cccc(NC(=O)OCc4ccccc4)c3)C(Cc3ccccc3)C(O)C(O)C2Cc2ccccc2)c1)OCc1ccccc1 (stereo not drawn) [15E] | 190.7 °C | > 100 µg/mL | 10 to 1000 nM | 
13 | CCCNC(=O)c1cccc(CN2C(=O)N(Cc3cccc(C(=O)O)c3)C(Cc3ccccc3)C(O)C(O)C2Cc2ccccc2)c1 (stereo not drawn) [15WO] | 151 to 153 °C | < 10 µg/mL | < 10 nM | 
14 | O=C1N(Cc2cccc(C=NOCc3ccccc3)c2)C(Cc2ccccc2)C(O)C(O)C(Cc2ccccc2)N1Cc1cccc(C=NOCc2ccccc2)c1 (stereo not drawn) [Example 9D] | 170.5 to 171 °C | 10 to 100 µg/mL (≈ 12.9 to 129 µM) | 10 to 1000 nM | 
15 | O=C1N(Cc2ccccc2)C(Cc2ccccc2)C(O)C(O)C(Cc2ccccc2)N1Cc1cccc(O)c1 (stereo not drawn) [11I] | 189 to 193 °C | < 10 µg/mL | < 10 nM | 
16 | CN(C)c1cccc(CN2C(=O)N(Cc3cccc(N(C)C)c3)C(Cc3ccccc3)C(O)C(O)C2Cc2ccccc2)c1 (stereo not drawn) [15I] | 199.9 °C | < 10 µg/mL | < 10 nM | 
17 | O=C1N(Cc2cccnc2)C(Cc2ccccc2)C(O)C(O)C(Cc2ccccc2)N1Cc1cccc(-c2cc[nH]n2)c1 (stereo not drawn) [Example 15BU] | 133 to 136 °C |  |  | IC90 (HIV-1 (RF) in MT-2 cells; [5]): < 10 µg/mL; Ki [1, 6]: < 10 nM
18 | O=C1NC(Cc2ccccc2)C(O)C(O)C(Cc2ccccc2)N1Cc1cccc(CO)c1 (stereo not drawn) [15WI] | 176 to 177 °C | < 10 µg/mL | < 10 nM | 

Row | SMILES | melting point | IC90 (HIV-1 (RF) in MT-2 cells; [3]) | Ki [1, 4] | other results
19 | O=S1(=O)N(CC2CC2)C(Cc2ccccc2)C(O)C(O)C(Cc2ccccc2)N1CC1CC1 (stereo not drawn) [Example 23F] | 71 to 72 °C |  |  | IC90 (HIV-1 (RF) in MT-2 cells; [2]): < 10 µg/mL; Ki ([1]; read-out: HPLC Ki, Table 2m): < 10 nM
20 | O=C1N(Cc2cccc(-c3cnc[nH]3)c2)C(Cc2ccccc2)C(O)C(O)C(Cc2ccccc2)N1Cc1cccc(-c2cnc[nH]2)c1 (stereo not drawn) [Example 15BK] | 171 to 175 °C |  |  | IC90 (HIV-1 (RF) in MT-2 cells; [5]): < 10 µg/mL; Ki [1, 6]: < 10 nM
21 | CNC(=O)c1cccc(CN2C(=O)N(Cc3cccc(CO)c3)C(Cc3ccccc3)C(O)C(O)C2Cc2ccccc2)c1 (stereo not drawn) [11M] | 107 to 109 °C | < 10 µg/mL | < 10 nM | 
22 | O=[N+]([O-])c1cccc(CN2C(Cc3ccccc3)C(O)C(O)C(Cc3ccccc3)N(Cc3cccc([N+](=O)[O-])c3)S2(=O)=O)c1 (stereo not drawn) [23L] | 196 to 198 °C |  |  | IC90 (HIV-1 (RF) in MT-2 cells; [2]): < 10 µg/mL; Ki ([1]; read-out: HPLC Ki, Table 2m): 10 to 1000 nM
23 | CNC(=O)Oc1cccc(CN2C(=O)N(Cc3cccc(OC(=O)NC)c3)C(Cc3ccccc3)C(O)C(O)C2Cc2ccccc2)c1 (stereo not drawn) [Example 9M] | 150 °C (dec.) |  | 10 to 1000 nM | IC90 (HIV-1 (RF) in MT-2 cells; Human immunodeficiency virus 1, MT2, 48 h): < 10 µg/mL
24 | COC(=O)c1cccc(CN2C(=O)N(Cc3cccc(-c4cc[nH]n4)c3)C(Cc3ccccc3)C(O)C(O)C2Cc2ccccc2)c1 (stereo not drawn) [Example 15BP] | 127 to 130 °C |  |  | IC90 (HIV-1 (RF) in MT-2 cells; [5]): < 10 µg/mL; Ki [1, 6]: < 10 nM
25 | CNC(=O)c1cccc(CN2C(=O)N(Cc3cccc(C(=O)OC)c3)C(Cc3ccccc3)C(O)C(O)C2Cc2ccccc2)c1 (stereo not drawn) [11G] | 158 to 161 °C | < 10 µg/mL | < 10 nM | 
26 | O=C1N(Cc2ccc3cn[nH]c3c2)C(Cc2ccccc2)C(O)C(O)C(Cc2ccccc2)N1Cc1ccc2cn[nH]c2c1 (stereo not drawn) [15CY] | 170 to 175 °C |  |  | IC90 (HIV-1 (RF) in MT-2 cells; [5]): < 10 µg/mL; Ki [1, 6]: < 10 nM
27 | Nc1ccc(CN2C(=O)N(Cc3ccc(N)cc3)C(Cc3ccccc3)C(O)C(O)C2Cc2ccccc2)cc1 (stereo not drawn) [15CQ] | 114 to 116 °C |  |  | IC90 (HIV-1 (RF) in MT-2 cells; [5]): < 10 µg/mL; Ki [1, 6]: < 10 nM
28 | O=C1N(Cc2cccc(-c3nnn[nH]3)c2)C(Cc2ccccc2)C(O)C(O)C(Cc2ccccc2)N1CC1CC1 (stereo not drawn) [9U] | 171.6 °C | < 10 µg/mL | < 10 nM | 
29 | NC(=O)c1cccc(CN2C(=O)N(CC3CC3)C(Cc3ccccc3)C(O)C(O)C2Cc2ccccc2)c1 (stereo not drawn) [15WV] | 128 to 130 °C | < 10 µg/mL | < 10 nM | 
30 | O=C1N(Cc2ccoc2)C(Cc2ccccc2)C(O)C(O)C(Cc2ccccc2)N1Cc1ccoc1 (stereo not drawn) [Example 15FN] | 152.5 to 153 °C |  |  | IC90 (HIV-1 (RF) in MT-2 cells; Human immunodeficiency virus 1, MT2, 48 h, HIV RNA assay, HIV-1 infected MT-2 cells, Table 2d, read-out: IC90): < 10 µg/mL; Ki ([1]; read-out: HPLC K1, HIV protease inhibition, HPLC method, Table 2d): < 10 nM
31 | CNc1cccc(CN2C(=O)N(Cc3cccc(NC)c3)C(Cc3ccccc3)C(O)C(O)C2Cc2ccccc2)c1 (stereo not drawn) [15D] | 180.3 °C | < 10 µg/mL | < 10 nM | 
32 | O=C1NC(Cc2ccccc2)C(O)C(O)C(Cc2ccccc2)N1Cc1ccc(CO)cc1 (stereo not drawn) [Example 11N] | 112 to 114 °C | < 10 µg/mL | < 10 nM | 
33 | NC(=NO)c1cccc(CN2C(=O)N(CC3CC3)C(Cc3ccccc3)C(O)C(O)C2Cc2ccccc2)c1 (stereo not drawn) [15AF] | 183 to 186 °C |  |  | IC90 (HIV-1 (RF) in MT-2 cells; [5]): < 10 µg/mL; Ki [1, 6]: < 10 nM
34 | NC(=NO)c1cccc(CN2C(=O)N(Cc3ccc(O)cc3)C(Cc3ccccc3)C(O)C(O)C2Cc2ccccc2)c1 (stereo not drawn) [15AU] | 195 to 197 °C |  |  | IC90 (HIV-1 (RF) in MT-2 cells; [5]): < 10 µg/mL; Ki [1, 6]: < 10 nM
35 | NC(=NO)c1ccc(CN2C(=O)N(Cc3ccc(CO)cc3)C(Cc3ccccc3)C(O)C(O)C2Cc2ccccc2)cc1 (stereo not drawn) [15AI] | 215 °C |  |  | IC90 (HIV-1 (RF) in MT-2 cells; [5]): < 10 µg/mL; Ki [1, 6]: 10 to 1000 nM
